“Also recorded” adds a separate entry of the source.
Legend:
[1] = aqueous medium at RT; cited from earlier work
[2] = predominantly organic medium; cited from earlier work
[3] = Selectivity towards various metal ions by absorption and emission spectra
Protocol: To check the selectivity of Receptor L1 towards various metal ions like Li^+, Na^+, K^+, Cs^+, Mg^2+, Ca^2+, Ba^2+, Sr^2+, Zn^2+, Co^3+, Cu^2+, Ni^2+, Fe^2+, Pb^2+, Hg^2+ change in electronic as well as emission spectra were examined in 0.32 mM Triton X 100 in tris (5 mM, 25 mM NaCl) buffer medium at PH 7.2.
However only in presence of Cr^3+, a strong absorption band at 562 nm and intense emission band at 583 nm (for λext=530 nm) are observed. These changes are also associated with simultaneous visually detectable change in solution colour from colourless to pink red.
A solution of the perchlorate salts of the respective ion (Li^+, Na^+, K^+, Cs^+, Ca^2+, Mg^2+, Ba^2+, Sr^2+, Fe^2+, Ni^2+, Co^2+, Cu^2+, Mn^2+, Cd^2+, Pb^2+, Ba^2+, Zn^2+, Sr^2+, Hg^2+ and Cr^3+) and nitrate salts of lanthanides ions (Tb^3+, Ho^3+, Ce^3+, Sm^3+, Rb^+, Pr^3+, Eu^3+, Gd^3+, Nd^3+, Dy^3+, Tm^3+, Er^3+, Yb^3+) in pure aqueous medium were used for all studies. The effective final concentrations of all metal salts were maintained at 1.62×10^−4 M.
A stock solution of the receptor L1 (6.9×10^−4 M) was prepared in acetonitrile medium and 57 μL of this stock solution was added to 2.5 ml of 0.4 mM TX100 in Tris-HCL aqueous buffer medium having solution pH 7.2 to make the effective ligand concentration of 1.59×10^−5 M. The solution was used for all the photophysical studies. […]

[4] = Relative fluorescence quantum yield w.r.t. Rhodamine B; assay type: physicochemical; conditions: with Cr^3+
Protocol: (§1) A stock solution of the receptor L1 (6.9×10^−4 M) was prepared in acetonitrile medium and 57 μL of this stock solution was added to 2.5 ml of 0.4 mM TX100 in Tris-HCL aqueous buffer medium having solution pH 7.2 to make the effective ligand concentration of 1.59×10^−5 M. The solution was used for all the photophysical studies. Cr^3+ stock solution (4.75×10^−3 M) was prepared in pure aqueous medium and was used for all studies. Emission titrations were also performed as a function of [TX100](0.1 mM, 0.23 mM, 0.32 mM, 0.4 mM, 0.6 mM) in Tris-HCl buffer medium of pH 7.2 by monitoring the increase in emission intensity (using λExt=530 nm, λMon=583 nm and slit width 2/2 nm) on binding of L1 to Cr^3+ for optimizing the maximum enhancement of the emission intensity. The relative fluorescence quantum yields (t) were estimated using equation 1 for different concentration of TX100 (0.1 mM, 0.23 mM, 0.32 mM, 0.4 mM, 0.6 mM) in Tris-HCl buffer medium (having solution pH of 7.2) and by using the Rhodamine B (φf=0.3 in aqueous medium at RT) as a reference. φf=φf′(Isample/Istd)(Astd/Asample)(η^2sample/η^2std) Eq. 1 where, φf′ was the absolute quantum yield for the rhodamine B and was used as reference; Isample and Istd are the integrated emission intensities; Asample and Astd are the absorbances at the excitation wavelength, and ηsample and ηstd are the respective refractive indices.

[5] = Emission (fluorescence) spectral titration with B-H plot in aqueous Triton X 100 / Tris buffer pH 7.2; assay type: binding
Protocol: (§2) The association constant (Kabs) of 2.4×10^3 M^−1 for the L1-Cr^3+ formation is evaluated from the absorption titration and B-H plot data (FIG. 3). A good linear fit data supported the 1:1 binding stoichiometry. For emission titration, a significant increase in emission intensity at 583 nm is observed with an increase in concentration of Cr^3+ in aqueous medium. […] The 1:1 binding stoichiometry is further confirmed from Jobs plot and presence of signal for m/z at 616.87 (Calc 616.75) in FAB-MS analysis of a mixture of L1 (1.59×10^-5 M) and (9.5×10^−5 M) Cr(ClO4)3 for [L1+Cr^3+].
as §1, with “indices. Computational Methodology:” for “indices.”
(§3) Formation of Cr^3+.L1 was also confirmed from the result “Formation of Cr3+.L1 was also confirmed from the result of FAB MS study. Signal at m/z value of 616.87 (Calc 616.75) for Cr3+.L1”.
3.28×10^−3 M Cr(III) solution in water is prepared and then it is gradually added to a solution of the ligand L1, where effective ligand concentration is 1.59×10^−5 M in a Tris buffer with solution pH of 7.2 having 0.32 mM Triton X 100. Uv-vis and luminescence spectra are recorded in absence and presence of [Cr(III)]. In emission spectra a 200 fold increase in spectral intensity at 583 nm (λext=530 nm and slit 2/2) is observed, while a simultaneous change in solution colour is observed from colourless to pink red (please refer to FIGS. 4 and 6).

[6] = Absorption (UV-Vis) spectral titration with B-H plot in aqueous Triton X 100 / Tris buffer pH 7.2; assay type: binding
Protocol: as §2
as §1, with “indices. Computational Methodology:” for “indices.”
as §3

[7] = Isothermal Titration Calorimetry (ITC) in acetonitrile at 25° C.; assay type: binding
Protocol: FIG. 10 depicts Isothermal Titration Calorimetry (ITC) titration profile for the binding of Cr^3+ to receptor L1 at 25° C. in acetonitrile; Top plot: raw data for the sequential 2 μl injection of Cr^3+ (1.2×10^−3 M) into solution of L1 (2.0×10^−4 M) and bottom plot of the heat evolved (kcal per mole) of Cr^3+ added.
5.0 mM Tris-HCl aq. buffer solution was used for maintaining solution pH, unless mentioned otherwise. ESI-MS measurements were performed using a Micromass QTof-Micro instrument. FT-IR spectra were recorded as KBr pellets using a Perkin Elmer Spectra GX 2000 spectrometer. ^1H and ^13C NMR spectra were recorded on Bruker 500 MHz FT NMR (model: Avance-DPX 500). Electronic spectra were recorded with a Varian Cary 500 Scan UV-Vis-NIR Spectrophotometer, Isothermal Titration Calorimetry studies were performed in Microcal iTC200, while emission spectra were recorded using either Edinburgh Instrument Xe-900 Spectrofluorometer or PTI. For all spectroscopic studies in aqueous buffer medium as well as for studies with plant/algal cells, L1 self-assembled inside the miceller structure of TX100 was used, unless mentioned otherwise.
(§4) To envisage the adverse role of high solvation enthalpy of Cr(III) in aqueous medium, similar Uv-vis and emission titrations were carried out in acetonitrile medium using ([Cr(III)]=(0-1.93×10^−4)M; and [L1]=(1.59×10^−5 M) in CH3CN) and the evaluated formation constant for Cr^3+.L1 in acetonitrile was (Ka^Abs=(1.1±0.03)·10^6 M^−1, Ka^Ems=(1.0±0.02)·10^6 M^−1 using λExt: 530 nm and λMon: 583 nm for emission titration). The binding affinity of L1 towards Cr^3+ was evaluated as Ka^ITC=(1.6±0.02)·10^6 M^−1 in acetonitrile medium at 25° C. using ITC experiments. […] Thermodynamic parameters were obtained from ITC studies (ΔG (−(8.48±0.02) kcal mol^−1), ΔH ((−20.8±0.4) kcal mol^−1) and ΔS (−41.4±0.05) cal mol^−1) (all symbols are used according to standard terminology).

[8] = Uv-vis and emission titrations in acetonitrile medium; assay type: binding
Protocol: as §4

[9] = [Triton X 100] 0.23 mM, aqueous medium
[10] = [Triton X 100] 0.32 mM, Tris buffer pH 7.2

In the case of `CCN(CC)c1ccc2c(-c3ccccc3C(=O)O)c3ccc(=[N+](CC)CC)cc-3oc2c1.[Cl-]` [Rhodamine B], the “Fluorescence quantum yield φf (reference)” value [1] is listed as 0.3.

For `O=c1ccc2cc(/N=C/c3c4ccccc4cc4ccccc34)ccc2o1` [Receptors 3], the “Selectivity towards Cr(III)” value [2] is given as “high selectivity towards Cr(III)”.

For `C=CCN(CC=C)CCN1C(=O)c2ccccc2C12c1ccc(N(CC)CC)cc1Oc1cc(N(CC)CC)ccc12` [Ligand L1], the “Selectivity for Cr(III) over other metal ions (absorption 562 nm, emission 583 nm, colour)” value ([3]; Triton X 100 in Tris buffer pH 7.2, alkali, alkaline earth and transition metal ions) was “selective/specific for Cr (III); also recorded: no such changes are observed”, the “Interference of Cr(VI)” value ([3]; pure aqueous medium) was “does not have any interferences of Cr(VI) at all” and the “Quantum yield in water w.r.t. Rhodamine B” value ([4]; [Triton X 100] 0.23 mM) was 0.185. The “Quantum yield in water w.r.t. Rhodamine B” value ([4]; [Triton X 100] 0.32 mM) was 0.211, the “Quantum yield in water w.r.t. Rhodamine B” value ([4]; [Triton X 100] 0.4 mM) was 0.22 and the “Increase in emission spectral intensity at 583 nm on adding Cr(III)” value ([5]; L1 1.59×10^−5 M, 0.32 mM Triton X 100, Tris pH 7.2, λext 530 nm) was 200 fold. For the same molecule, the “Binding Constant, Fluorescence Spectroscopic Method” value [5, 9] was 2000 M⁻¹, the “Binding Constant, Fluorescence Spectroscopic Method” value [5, 10] was 2830 M⁻¹ and the “Binding Constant, Fluorescence Spectroscopic Method” value ([5]; [Triton X 100] 0.4 mM, Tris pH 7.2) was 3250 M⁻¹. The “Ka^Ems, binding constant for formation of Cr^3+.L1” value ([5]; aq. buffer medium pH 7.2, emission titration, B-H plot) was “(3.3±0.2)·10^3 M^−1”, the “Binding Constant, Uv-Vis Spectroscopic Method” value [6, 9] was 1960 M⁻¹ and the “Binding Constant, Uv-Vis Spectroscopic Method” value [6, 10] was 2400 M⁻¹. For the same molecule, the “Binding Constant, Uv-Vis Spectroscopic Method” value ([6]; [Triton X 100] 0.4 mM, aqueous medium) was 3200 M⁻¹, the “Ka^Abs, binding constant for formation of Cr^3+.L1” value ([6]; aq. buffer medium pH 7.2, absorption titration, B-H plot) was 3.2±0.2)·10^3 M^−1 and the “Ka^ITC, binding affinity towards Cr^3+” value [7] was “(1.6±0.02)·10^6 M^−1”. The ΔH of binding ([7]; ITC) was -20.8 ± 0.4 kcal/mol, the ΔS of binding ([7]; ITC) was -41.4 ± 0.05 cal/(mol·K) and the “Ka^Abs, formation constant for Cr^3+.L1” value [8] was “(1.1±0.03)·10^6 M^−1”. The “Ka^Ems, formation constant for Cr^3+.L1” value ([8]; λExt 530 nm, λMon 583 nm) was “(1.0±0.02)·10^6 M^−1”.

Reference: US9823232B2, “Ligand for detection of chromium (III) and a process for the preparation thereof” (COUNCIL OF SCIENTIFIC & INDUSTRIAL RESEARCH, priority 2013, dated 2017)
